Laboratory results reported in ChEMBL document CHEMBL5537204, “Identifying Marine-Derived Tanzawaic Acid Derivatives as Novel Inhibitors against Osteoclastogenesis and Osteoporosis via Downregulation of NF-κB and NFATc1 Activation” (J Med Chem, 2024).
Active and inactive are the calls of the source. The rule behind the calls is not given here.

Columns and labels:
RAW264.7 [1] = test: Inhibition of LPS-induced NF-kappaB activation in mouse RAW264.7 cells expressing luciferase gene at 20 uM preincubated with compound for 30 mins followed by LPS-induction and measured after 6 hrs by luciferase reporter gene assay; type: cell-based; conditions: time 6.5 hrs
RAW264.7 [2] = test: Inhibition of LPS-induced NF-kappaB activation in mouse RAW264.7 cells expressing luciferase gene preincubated with compound for 30 mins followed by LPS-induction and measured after 6 hrs by luciferase reporter gene assay; type: cell-based; conditions: dose 20.0 µM, time 6.5 hrs
BMMC [3] = test: Anti-osteoporosis activity in C57BL/6 mouse BMMC cells assessed as reduction in RANKL-induced osteoclasts formation at 10 uM incubated for 4 days in presence of MCSF by TRAP staining based assay; type: functional
Transcription factor p65 = Transcription factor p65 (Mus musculus, UniProt Q04207); test: Binding affinity to NF-kappaB p65 in mouse RAW264.7 cells assessed as dissociation constant by SPR analysis
Mus musculus [4] = test: Anti-osteoporosis activity in OVX-induced osteoporosis C57BL/6 mouse model assessed as downregulation of p65 expression in bone at 5 to 10 mg/kg, IG administered every 3 days for 8 weeks by IHC analysis; type: functional, organism-based; conditions: dose 5-10 mg/kg
BMMC [5] = test: Anti-osteoclastogenesis activity in RANKL-induced C57BL/6 mouse BMMC cells assessed as suppression of NFATc1 expression level in nucleus at 1 to 10 uM pretreated with compound for 4 hrs followed by RANKL-induction and measured after 24 hrs by Western blot analysis; type: functional, cell-based; conditions: dose 1-10 µM, time 28.0 hrs
Mus musculus [6] = test: Anti-osteoporosis activity in OVX-induced osteoporosis C57BL/6 mouse model assessed as increase in BV/TV in femur at 5 to 10 mg/kg, IG administered every 3 days for 8 weeks; type: functional, organism-based; conditions: dose 5-10 mg/kg
BMMC [7] = test: Anti-osteoclastogenesis activity in RANKL-induced C57BL/6 mouse BMMC cells assessed as inhibition of TRAP mRNA expression pretreated with compound for 4 hrs followed by RANKL-induction and measured after 24 hrs by RT-PCR analysis; type: functional, cell-based; conditions: dose 1-10 µM, time 28.0 hrs
Mus musculus [8] = test: Anti-osteoporosis activity in OVX-induced osteoporosis C57BL/6 mouse model assessed as prevention of bone loss in femur at 5 to 10 mg/kg, IG administered every 3 days for 8 weeks; type: functional, organism-based; conditions: dose 5-10 mg/kg
RAW264.7 [9] = test: Inhibition of RANKL-induced NF-kappaB activation in mouse RAW264.7 cells expressing luciferase gene assessed as suppression of IkappaBalpha degradation at 1 to 10 uM preincubated with compound for 4 hrs followed by LPS-induction and measured after 6 hrs by Western blot analysis; type: cell-based; conditions: dose 1-10 µM, time 10.0 hrs
Mus musculus [10] = test: Anti-osteoporosis activity in OVX-induced osteoporosis C57BL/6 mouse model assessed as prevention of bone loss in femur at 10 mg/kg, IG administered every 3 days for 8 weeks; type: functional, organism-based
RAW264.7 [11] = test: Inhibition of RANKL-induced NF-kappaB activation in mouse RAW264.7 cells expressing luciferase gene assessed as reduction in p65 protein level in nucleus preincubated with compound for 4 hrs followed by LPS-induction and measured after 6 hrs by Western blot analysis; type: cell-based; conditions: dose 1-10 µM, time 10.0 hrs
BMMC [12] = test: Anti-osteoclastogenesis activity in RANKL-induced C57BL/6 mouse BMMC cells assessed as inhibition of OSCAR mRNA expression pretreated with compound for 4 hrs followed by RANKL-induction and measured after 24 hrs by RT-PCR analysis; type: functional, cell-based; conditions: dose 1-10 µM, time 28.0 hrs
Mus musculus [13] = test: Anti-osteoporosis activity in OVX-induced osteoporosis C57BL/6 mouse model assessed as downregulation of NFATc1 expression in bone at 5 to 10 mg/kg, IG administered every 3 days for 8 weeks by IHC analysis; type: functional, organism-based; conditions: dose 5-10 mg/kg
BMMC [14] = test: Anti-osteoclastogenesis activity in C57BL/6 mouse BMMC cells assessed as reduction in RANKL-induced osteoclasts formation incubated for 4 days in presence of MCSF by TRAP staining based assay; type: functional, cell-based; conditions: dose 1-10 µM, time 4.0 day
BMMC [15] = test: Anti-osteoclastogenesis activity in C57BL/6 mouse BMMC cells assessed as reduction in RANKL-induced osteoclasts formation at 5 uM incubated for 4 days in presence of MCSF by TRAP staining based assay; type: functional; design: scale not given: the % may be the effect or the level left; conditions: time 4 day
[16] = target: Transcription factor p65 (Mus musculus) (UniProt Q04207); test: Binding affinity to NF-kappaB p65 in mouse RAW264.7 cells assessed as thermal stabilization at 10 uM at 37 to 57 degreeC incubated for 4 hrs by CETSA assay; type: cell-based
RAW264.7 [17] = test: Downregulation of p65 expression in RANKL-induced mouse RAW264.7 cells expressing NFATc1 at 10 uM pretreated with compound for 4 hrs followed by RANKL-induction and measured after 24 hrs by Western blot analysis; type: functional, cell-based; conditions: time 28.0 hrs
BMMC [18] = test: Anti-osteoclastogenesis activity in RANKL-induced C57BL/6 mouse BMMC cells assessed as inhibition of Atp6v0d2 mRNA expression pretreated with compound for 4 hrs followed by RANKL-induction and measured after 24 hrs by RT-PCR analysis; type: functional, cell-based; conditions: dose 1-10 µM, time 28.0 hrs
[19] = Toxicity in C57BL/6 mouse assessed as animal death at 5 to 10 mg/kg, IG administered every 3 days for 46 days; type: organism-based; conditions: in vivo, po, 1104 h, dose 5-10 mg/kg, time 46 day
Mus musculus [20] = test: Anti-osteoporosis activity in OVX-induced osteoporosis C57BL/6 mouse model assessed as prevention of bone loss in femur at 5 to 10 mg/kg, IG administered every 3 days for 8 weeks by H and E staining based analysis; type: functional, organism-based; conditions: dose 5-10 mg/kg
RAW264.7 [21] = test: Inhibition of RANKL-induced NF-kappaB activation in mouse RAW264.7 cells expressing luciferase gene preincubated with compound for 4 hrs followed by LPS-induction and measured after 6 hrs by luciferase reporter gene assay; type: cell-based; conditions: dose 1-10 µM, time 10.0 hrs
Mus musculus [22] = test: Anti-osteoporosis activity in OVX-induced osteoporosis C57BL/6 mouse model assessed as increase in connectivity density in femur at 5 to 10 mg/kg, IG administered every 3 days for 8 weeks; type: functional, organism-based; conditions: dose 5-10 mg/kg
[23] = Toxicity in C57BL/6 mouse assessed as abnormal behavior at 5 to 10 mg/kg, IG administered every 3 days for 46 days; type: organism-based; conditions: in vivo, po, 1104 h, dose 5-10 mg/kg, time 46 day
BMMC [24] = test: Cytotoxicity against mouse BMMC cells assessed as reduction in cell viability at 10 uM incubated for 4 days by MTT assay; type: toxicity, cell-based; conditions: 96 h, time 4 day
Mus musculus [25] = test: Anti-osteoporosis activity in OVX-induced osteoporosis C57BL/6 mouse model assessed as prevention of bone loss in femur at 60 mg/kg, IG administered every 3 days for 8 weeks; type: functional, organism-based
[26] = Toxicity in C57BL/6 mouse assessed as abnormal behavior at 60 mg/kg, IG administered every 3 days for 46 days; type: organism-based; conditions: in vivo, po, 1104 h, time 46 day
Mus musculus [27] = test: Anti-osteoporosis activity in OVX-induced osteoporosis C57BL/6 mouse model assessed as increase in BV/TV in femur at 60 mg/kg, IG administered every 3 days for 8 weeks; type: functional, organism-based
Mus musculus [28] = test: Anti-osteoporosis activity in OVX-induced osteoporosis C57BL/6 mouse model assessed as increase in connectivity density in femur at 60 mg/kg, IG administered every 3 days for 8 weeks; type: functional, organism-based
[29] = Toxicity in C57BL/6 mouse assessed as animal death at 60 mg/kg, IG administered every 3 days for 46 days; type: organism-based; conditions: in vivo, po, 1104 h, time 46 day

Transcription factor p65 (Mus musculus), sequence (Q04207 whole entry): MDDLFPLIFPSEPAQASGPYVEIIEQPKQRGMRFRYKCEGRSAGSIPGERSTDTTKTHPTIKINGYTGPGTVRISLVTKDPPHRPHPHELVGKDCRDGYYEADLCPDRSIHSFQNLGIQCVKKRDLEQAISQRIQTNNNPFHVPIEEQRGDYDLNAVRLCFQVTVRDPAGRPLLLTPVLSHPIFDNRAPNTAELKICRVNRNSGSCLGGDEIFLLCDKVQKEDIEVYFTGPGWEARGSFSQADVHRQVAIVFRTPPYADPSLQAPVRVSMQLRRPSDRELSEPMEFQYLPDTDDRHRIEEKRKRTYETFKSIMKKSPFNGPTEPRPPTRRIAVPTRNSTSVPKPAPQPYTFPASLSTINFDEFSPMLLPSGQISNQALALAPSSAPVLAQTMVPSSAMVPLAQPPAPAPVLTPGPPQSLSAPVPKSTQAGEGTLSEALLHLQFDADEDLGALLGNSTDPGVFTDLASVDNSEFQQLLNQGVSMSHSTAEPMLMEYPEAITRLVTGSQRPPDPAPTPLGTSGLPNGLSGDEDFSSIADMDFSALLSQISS
Transcription factor p65, sequence (Q04207 whole entry): as above

Cc1ccc2c(c1/C=C/C=C/C(=O)O)[C@H](C)C[C@@](C)(O)[C@H]2O
inhibition (RAW264.7 [1]): Active
inhibition (RAW264.7 [2]): Dose-Dependent Effect
Activity (BMMC [3]; time 4.0 day): Active

CC1=CC(=O)[C@H]2C[C@@H](C)C[C@@H](C)[C@@H]2[C@]1(O)/C=C/C=C/C(=O)O
inhibition (RAW264.7 [2]): Dose-Dependent Effect

C[C@H]1C[C@H]2[C@@H](O)[C@H](Cl)[C@@H](C)[C@@](O)(/C=C/C=C/C(=O)O)[C@@H]2[C@@H](C)C1
inhibition (RAW264.7 [2]): Dose-Dependent Effect
Activity (BMMC [3]; time 4.0 day): Active

C[C@@H]1C[C@@](C)(O)C[C@@H]2C=C[C@H](C)[C@H](/C=C/C(=O)O)[C@@H]12
inhibition (RAW264.7 [2]): Dose-Dependent Effect

Cc1ccc2c(c1/C=C/C=C/C(=O)O)[C@H](C)C[C@H](C)[C@H]2O
inhibition (RAW264.7 [1]): Active

CC1=C(/C=C/C=C/C(=O)O)[C@H]2[C@H](C=C1)C[C@H](C)C[C@@H]2C
inhibition (RAW264.7 [2]): Dose-Dependent Effect

CC(=O)OC[C@@H](C)C[C@@H](C)c1cccc(C)c1/C=C/C=C/C(=O)O
inhibition (RAW264.7 [2]): Dose-Dependent Effect
Activity (BMMC [3]; time 4.0 day): Active

C[C@@H]1C[C@@](C)(O)C[C@@H]2C=C[C@@](C)(/C=C/C=C/C(=O)O)C(=O)[C@@H]12
inhibition (RAW264.7 [2]): Dose-Dependent Effect

CC(=O)OCc1ccc2c(c1/C=C/C=C/C(=O)O)[C@H](C)C[C@H](C)C2
inhibition (RAW264.7 [1]): Active

CO[C@H]1C=C(C)[C@H](/C=C/C=C/C(=O)O)[C@@H]2[C@@H]1C[C@@H](CO)C[C@H]2C
inhibition (RAW264.7 [2]): Dose-Dependent Effect

C[C@@H]1[C@@H](Cl)[C@H](O)[C@@H]2C[C@H](CO)C[C@H](C)[C@H]2[C@@H]1/C=C/C=C/C(=O)O
inhibition (RAW264.7 [2]): Dose-Dependent Effect
Activity (BMMC [3]; time 4.0 day): Active

Cc1ccc2c(c1/C=C/C=C/C(=O)O)[C@H](C)C[C@H](C)C2
inhibition (RAW264.7 [1]): Active

Cc1ccc2c(c1/C=C/C=C/C(=O)O)[C@H](C)C[C@H](C)[C@@H]2O
inhibition (RAW264.7 [1]): Active

C[C@@H]1C[C@@H]2[C@@H](C(=O)O)[C@H](C)[C@](O)(/C=C/C=C/C(=O)O)[C@H]2[C@H](C)C1
inhibition (RAW264.7 [2]): Dose-Dependent Effect

Cc1ccc2c(c1/C=C/C=C/C(=O)O)[C@H](C)C[C@@](C)(O)C2
inhibition (RAW264.7 [1]): Active
inhibition (RAW264.7 [2]): Dose-Dependent Effect

C[C@@H]1Cc2ccc(CO)c(/C=C/C=C/C(=O)O)c2[C@H](C)C1
inhibition (RAW264.7 [1]): Active

CC(=O)OC[C@@H]1Cc2ccc(C)c(/C=C/C=C/C(=O)O)c2[C@H](C)C1
inhibition (RAW264.7 [1]): Active

C[C@@H]1[C@@H](Cl)[C@H](O)[C@@H]2C[C@@](C)(O)C[C@H](C)[C@H]2[C@]1(O)/C=C/C=C/C(=O)O
inhibition (RAW264.7 [2]): Dose-Dependent Effect

Cc1cccc([C@H](C)C[C@H](C)CO)c1/C=C/C=C/C(=O)O
Kd (Transcription factor p65): 44.7 µM
Activity (Mus musculus [4]): Active
Activity (BMMC [5]): Active
Activity (Mus musculus [6]): Active
Activity (BMMC [7]): Dose-Dependent Effect
Activity (Mus musculus [8]): Active
inhibition (RAW264.7 [9]): Active
Activity (Mus musculus [10]): Active
inhibition (RAW264.7 [11]): Dose-Dependent Effect
Activity (BMMC [12]): Dose-Dependent Effect
inhibition (RAW264.7 [2]): Dose-Dependent Effect
Activity (Mus musculus [13]): Active
Activity (BMMC [14]): Dose-Dependent Effect
Activity (BMMC [15]): 49.2%
Activity [16]: Active
Activity (RAW264.7 [17]): Active
Activity (BMMC [18]): Dose-Dependent Effect
Activity (BMMC [3]; time 4 day): 69.7%
Activity [19]: Non-Toxic
Activity (Mus musculus [20]): Active
inhibition (RAW264.7 [21]): Dose-Dependent Effect
Activity (Mus musculus [22]): Active
Activity [23]: Non-Toxic
Activity (BMMC [24]): Non-Toxic

CC1=C(/C=C/C=C/C(=O)O)[C@@H]2[C@H](C[C@](C)(O)C[C@H]2C)[C@@H](O)[C@H]1O
inhibition (RAW264.7 [2]): Dose-Dependent Effect

C[C@@H]1[C@@H](O)[C@H](O)[C@@H]2C[C@H](CO)C[C@H](C)[C@H]2[C@]1(O)/C=C/C=C/C(=O)O
inhibition (RAW264.7 [2]): Dose-Dependent Effect

CC(=O)C[C@@H](C)c1cccc(C)c1/C=C/C=C/C(=O)O
inhibition (RAW264.7 [2]): Dose-Dependent Effect

C[C@@H]1C[C@@](C)(O)C[C@@H]2C=C[C@H](C)[C@](O)(/C=C/C=C/C(=O)O)[C@@H]12
inhibition (RAW264.7 [2]): Dose-Dependent Effect
Activity (BMMC [3]; time 4.0 day): Active

Cc1ccc2c(c1/C=C/C=C/C(=O)O)[C@H](C)C[C@H](CO)C2
inhibition (RAW264.7 [1]): Active

C[C@@H]1C[C@](O)(CO)C[C@@H]2C=C[C@H](C)[C@H](/C=C/C=C/C(=O)O)[C@@H]12
inhibition (RAW264.7 [2]): Dose-Dependent Effect

C[C@]12CC[C@@H]3c4ccc(O)cc4CC[C@H]3[C@@H]1CC[C@@H]2O [ESTRADIOL]
Activity (Mus musculus [25]): Active
Activity [26]: Non-Toxic
Activity (Mus musculus [27]): Active
Activity (Mus musculus [28]): Active
Activity [29]: Non-Toxic

C[C@@H]1C[C@@](C)(O)C[C@@H]2C=C[C@H](C)[C@H](/C=C/C=C/C(=O)O)[C@@H]12
inhibition (RAW264.7 [2]): Dose-Dependent Effect

CC(=O)OC[C@H]1C[C@@H](C)[C@H]2[C@@H](C=C[C@H](C)[C@]2(O)/C=C/C=C/C(=O)O)C1
inhibition (RAW264.7 [2]): Dose-Dependent Effect
